Values joined by “and” are separate entries in the source; they are usually repeats but may differ in a detail not shown here. Equal values may be shown once.
What was measured:
Solubility (qualitative) = type: physicochemical
PB1(5) [1] = target: T1, PB1(5) (Homo sapiens, UniProt Q86U86); assay: DSF Tm shift assay, PB1(5) bromodomain; type: binding; settings: for PB1(5) Tm (Supplementary Table 2): average of three replicates and standard deviation
T1 construct: the fifth bromodomain of PB1 (PB1(5)); made in house
T1 sequence (Q86U86 653-774): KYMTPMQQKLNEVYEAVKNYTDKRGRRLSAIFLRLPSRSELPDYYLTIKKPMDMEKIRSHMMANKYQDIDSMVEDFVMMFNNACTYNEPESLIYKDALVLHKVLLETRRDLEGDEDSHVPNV

BRD9A = target: T2, BRD9A (Homo sapiens, UniProt Q9H8M2); assay: DSF Tm shift assay, BRD9A; type: binding; settings: single measurement
T2 construct: Bromodomain DSF Tm assays were performed; made in house
T2 sequence (Q9H8M2 136-240 limits assumed): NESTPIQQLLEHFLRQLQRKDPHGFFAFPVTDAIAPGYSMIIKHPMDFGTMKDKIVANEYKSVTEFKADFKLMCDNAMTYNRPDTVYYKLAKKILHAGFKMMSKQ
Experimental: (§1) Protein Expression and Purification.
(§2) Proteins were cloned, expressed, and purified as previously described.1 […]
(§3) Bromodomain DSF Tm assays were performed using a Mx3005p real-time PCR machine (Agilent) and low profile 96-well PCR plates (AB-0700, Life Technologies). Protein was buffered in 10 mM HEPES, pH 7.5, 500 mM NaCl and assayed at a concentration of 2 µM with 10 µM inhibitor concentration and 1:1000 SyproOrange (Invitrogen). Excitation and emission filters were set to 465 and 590 nm respectively. The temperature was raised by 3 °C per 1 min from 25–95 °C, and fluorescence readers were taken at each interval. Data analysis was carried out as described previously.2
(§4) AlphaScreen Displacement Assay.
(§5) AlphaScreen assays were based on a reported protocol, with minor variations.3 In place of a biotinylated peptide, a biotinylated ligand was used at 25 nM final concentration.
(§6) Isothermal Calorimetry Experiments.
(§7) Calorimetric experiments were performed on a VP-ITC micro-calorimeter (MicroCalTM, LLC Northampton, MA). Protein solutions were buffer exchanged by dialysis into buffer 20 mM Hepes pH 7.5, 150 mM NaCl, and 0.5 mM TCEP. All measurements were carried out at 293.15 K while stirring at 286 rpm. The micro syringe was loaded with protein solutions ranging from […]

BRPF1B = target: T3, BRPF1B (Homo sapiens, UniProt P55201); assay: DSF Tm shift assay, BRPF1B; type: binding; settings: single measurement
T3 construct: Bromodomain DSF Tm assays were performed; made in house
T3 sequence (P55201 628-732 limits assumed): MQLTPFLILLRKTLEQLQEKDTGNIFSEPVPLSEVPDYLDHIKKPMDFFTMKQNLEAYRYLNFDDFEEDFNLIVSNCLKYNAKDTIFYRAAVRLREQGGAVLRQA
Experimental: as §1, §2, §3, §4, §5, §6, §7

CECR2A = target: T4, CECR2A (Homo sapiens, UniProt Q9BXF3); assay: DSF Tm shift assay, CECR2A; type: binding; settings: single measurement
T4 construct: Bromodomain DSF Tm assays were performed; made in house
T4 sequence (Q9BXF3 434-538 limits assumed): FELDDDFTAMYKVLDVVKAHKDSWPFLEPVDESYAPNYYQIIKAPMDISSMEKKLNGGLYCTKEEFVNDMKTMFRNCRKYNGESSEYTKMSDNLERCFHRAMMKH
Experimental: as §1, §2, §3, §4, §5, §6, §7

[2] = Aqueous stability by 1H NMR in D2O time course; type: physicochemical
Source text: Compounds were synthesized by the routes shown in Scheme 1. Amidation of 2-aminobenzamide 2 with 4-chlorobutanoyl chloride[29] gave amide 3, which could be cyclized to the 2,3-dihydropyrrolo[1,2-a]quinazolin-5(1H)-one core 4 using potassium tert-butoxide. The isomer was confirmed on the basis of NOE correlations and subsequent crystallography. The weak nucleophilicity of the core was then exploited by reacting compound 4 with substituted N,N-dialkylformamides using Vilsmeier–Haack conditions, giving analogues incorporating nitrogen-based aliphatic side chains solely as the E regioisomer. This chemistry was unsuitable for piperazine-based formamides. For these side chains, analogues 12–15 were synthesized as single regioisomers by displacement of the dimethylamino group in 5 using cyclic secondary amines and DMAP catalysis. Due to the potential for hydrolysis of the enamine-like moiety, the aqueous stability of 5 was assessed by ^1H NMR in a D2O time course experiment and was stable for >24 h. […] Their binding to PB1(5) was assessed by the operationally simple DSF assay (Table 1). […] Six-membered aliphatic rings (10–14) were better tolerated than analogues containing six-membered aromatic side chains (see Supporting Information), likely due to their greater flexibility. However, expansion to a seven-membered ring reduced activity.

PB1(5) [3] = target: T1, PB1(5); assay: Isothermal calorimetry (ITC), PB1(5) bromodomain; type: binding; settings: for K × 10^6 (M^–1): 293.15 K
[4] = 10 μM inhibitor, average of three replicates

Row | SMILES | BRD9A Tm (BRD9A) [°C] | BRPF1B Tm (BRPF1B) [°C] | CECR2A Tm (CECR2A) [°C] | PB1(5) Tm (Supplementary Table 2) (PB1(5) [1]) [°C] | further results
1 | O=c1nc2n(c3ccccc13)CC/C2=C\c1ccoc1 [Compound 1] |  |  |  |  | aqueous solubility (Solubility (qualitative)): poor
2 | O=c1nc2n(c3ccccc13)CCC2 [Compound 4, 2,3-Dihydropyrrolo[1,2-a]quinazolin-5(1H)-one] |  |  |  |  | PB1(5) ΔTm (PB1(5) [1]; [4]): no interaction; ΔTm at 10 µM (PB1(5) [1]; [4]): 0 °C
3 | CN(C)/C=C1\CCn2c1nc(=O)c1ccccc12 [Compound 5, (E)-3-((Dimethylamino)methylene)-2,3-dihydropyrrolo[1,2-a]quinazolin-5(1H)-one] | 0.2 | 0.1 | 0.1 |  | aqueous stability [2]: > 24 h
4 | CCCN(/C=C1\CCn2c1nc(=O)c1ccccc12)CCC [Compound 7, (E)-3-((Dipropylamino)methylene)-2,3-dihydropyrrolo[1,2-a]quinazolin-5(1H)-one] |  |  |  |  | PB1(5) ΔTm (PB1(5) [1]; [4]): moderate activity
5 | CC(C)N(/C=C1\CCn2c1nc(=O)c1ccccc12)C(C)C [Compound 8, (E)-3-((Diisopropylamino)methylene)-2,3-dihydropyrrolo[1,2-a]quinazolin-5(1H)-one] |  |  |  |  | PB1(5) ΔTm (PB1(5) [1]; [4]): loss of binding
6 | O=c1nc2n(c3ccccc13)CC/C2=C\N1CCCC1 [Compound 9, (E)-3-(Pyrrolidin-1-ylmethylene)-2,3-dihydropyrrolo[1,2-a]quinazolin-5(1H)-one] | 1.0 | 0.0 | 0.2 | 4.3 ± 0.4 | TΔS (PB1(5) [3]): 4.7 kcal/mol and 4.717 kcal/mol; ΔG (PB1(5) [3]): -7.577 kcal/mol; K × 10^6 (M^–1) (PB1(5) [3]): 0.44 × 10^6 M^–1
7 | O=c1nc2n(c3ccccc13)CC/C2=C\N1CCCCC1 [Compound 10, (E)-3-(Piperidin-1-ylmethylene)-2,3-dihydropyrrolo[1,2-a]quinazolin-5(1H)-one] | 0.2 | 0.0 | 0.1 |  | TΔS (PB1(5) [3]): 5.3 kcal/mol and 5.274 kcal/mol; ΔG (PB1(5) [3]): -7.926 kcal/mol; K × 10^6 (M^–1) (PB1(5) [3]): 0.80 × 10^6 M^–1
8 | O=c1nc2n(c3ccccc13)CC/C2=C\N1CCOCC1 [Compound 11] | 0.8 | 0.0 | 0.1 |  | 

Further lines, with some results ahead:

Row | BRD9A Tm (BRD9A) [°C] | BRPF1B Tm (BRPF1B) [°C] | CECR2A Tm (CECR2A) [°C] | PB1(5) Tm (Supplementary Table 2) (PB1(5) [1]) [°C] | SMILES | further results
9 | 0.5 | 0.2 | 0.3 | 5.8 ± 0.1 | CN1CCN(/C=C2\CCn3c2nc(=O)c2ccccc23)CC1 [Compound 12] | 
10 | 0.8 | 0.0 | 0.1 | 5.0 ± 0.5 | CCN1CCN(/C=C2\CCn3c2nc(=O)c2ccccc23)CC1 [Compound 13] | 
11 | 0.7 | 0.2 | 0.1 | 4.7 ± 0.6 | CC(C)(C)OC(=O)N1CCN(/C=C2\CCn3c2nc(=O)c2ccccc23)CC1 [Compound 14] | 
12 | 0.0 | 0.2 | 0.0 | 3.5 ± 0.2 | CN1CCCN(/C=C2\CCn3c2nc(=O)c2ccccc23)CC1 [Compound 15] | 

Reference: publication PMC4920105, “Identification and Development of 2,3-Dihydropyrrolo[1,2-a]quinazolin-5(1H)-one Inhibitors Targeting Bromodomains within the Switch/Sucrose Nonfermenting Complex” (Journal of Medicinal Chemistry, 2016)
